Test: Human HepG2 cell viability assay in 384 well format
Type: toxicity, cell-based
Parameters: dose 125 nL, time 70.5 hour; cytotoxicity at 70.5 h: concentration not given beside the values
Settings: HepG2 cells, read-out: Inhibition

Row | Compound | cytotoxicity at 70.5 h [%]
1 | CC(C)c1nn(CC(=O)N2CCCCC2)c(=O)c2c1cnn2C(C)(C)C | -10.1
2 | CCCc1cc(=O)[nH]c2nnc(SCC(=O)NCc3ccc(C)cc3)n12 | -6.16
3 | Cc1cccc(NC(=O)Cn2ncc(SCC(N)=O)c(Cl)c2=O)c1C | -13.7
4 | O=C(c1cn(-c2cc(N3CCOCC3)ncn2)cn1)N1CCSCC1 | -2
5 | O=C(c1cn(-c2cc(N3CCSCC3)ncn2)cn1)N1CCSCC1 | -1.64
6 | O=S(=O)(NCC1CCN(c2ccccn2)CC1)c1ccccc1F | 33.3
7 | O=C(NCC1CCN(Cc2ccsc2)CC1)NC1CC1 | 1.34
8 | CN(C)C(CNS(=O)(=O)c1ccc(F)cc1F)c1cccn1C (configuration not stated) | -13.1
9 | O=C(NCC(Cc1cccc(F)c1)N1CCCC1=O)c1cnccn1 (configuration not stated) | 0.835
10 | CS(=O)(=O)N1CCC(C(=O)N2CCC3(CC2)OCCCO3)CC1 | 54.6
11 | Cc1nc(NCc2nccn2C)cc(C2COCCN2)n1 (configuration not stated) | -11.1
12 | COc1cc([C@@H]2N[C@H](c3nccs3)Cc3ccsc32)cc(OC)c1OC | -0.55
13 | Cc1nc(C(Cc2ccsc2)NC(=O)CN2CCOCC2)sc1C (configuration not stated) | -4.95
14 | Cc1nc(C(Cc2ccsc2)NC(=O)CCN2CCOCC2)sc1C (configuration not stated) | -7.23
15 | COCC(=O)N1C[C@@H](c2cc(O)nc(C)n2)[C@H](c2ccccc2F)C1 | 13
16 | Cc1cc2c(=O)n(CC(=O)N3CCn4cccc4C3C(C)C)cnc2s1 (configuration not stated) | -6.1
17 | CCC1c2ccc(C)n2CCN1C(=O)Cn1cnc2sc(C)cc2c1=O (configuration not stated) | -5.17
18 | CCC(CN1CCCC1)NC(=O)C1(c2ccc(F)cc2)CC1 (configuration not stated) | -7.41
19 | O=C(CCN1CCOCC1)NC(Cc1ccsc1)c1nccs1 (configuration not stated) | -4.65
20 | Cc1cccn2c(NC(C)(C)C)c(C3CCN(C(=O)C4CC4)CC3)nc12 | -6.96
21 | Cc1csc2c(C3CCN(CCCOc4ccccc4)CC3)nc(C)n12 | -0.478
22 | CC(C)C(=O)NCCc1cc2nc(-c3ccncc3)ccn2n1 | -6.71
23 | O=C(NCCc1cc2nc(-c3ccncc3)ccn2n1)C1CC1 | -6.41

Row | Compound | cytotoxicity at 70.5 h [%]
24 | CC(C)NC(=O)[C@@H]1CN(C)C[C@]12COc1ccc(F)cc1C2=O | -5.13
25 | CN(C)c1cc(C2CCCN2)ccn1 (configuration not stated) | 0.143
26 | Cc1noc(C)c1-c1cccc(C2CN(S(=O)(=O)N(C)C)CCO2)n1 (configuration not stated) | -3.96
27 | COCCn1c(=O)n(C)c(=O)c2ccc(C3CCN(C(C)=O)CC3)nc21 | -1.06
28 | Cn1ccnc1C1(O)CCCN(Cc2ccncc2)CC1 (configuration not stated) | -2.25
29 | Cc1ccccc1C(=O)N1CC[C@H](O)[C@@H](N2CCOCC2)CC1 | -4.48
30 | O=C(O)CCCN1C[C@@H](c2ccccc2F)[C@@]2(CCCCC(=O)N2)C1 | -2.59
31 | CCC(O)Cn1nc(-c2ccc(C(=O)O)cc2)cc1-c1cccc(F)c1 (configuration not stated) | 20.1
32 | Clc1ccc(OCCc2cc(C3CCN(c4ncccn4)C3)n[nH]2)cc1 (configuration not stated) | 0.0716
33 | NC(=O)CN1CCCC(c2ccnc(Nc3ncccn3)c2)C1 (configuration not stated) | 18.8
34 | COCCNc1ccc(CC2CCCN(C3CCOCC3)C2)nn1 (configuration not stated) | -4.94
35 | O=C(c1cccnc1)N1CCc2[nH]nc(Nc3ccccc3)c2C1 | -6.1
36 | CC(=O)N1CCCC(c2ccnc(Nc3cnccn3)c2)C1 (configuration not stated) | -1.19
37 | O=C(c1cncs1)N1CCc2[nH]nc(Nc3ccccc3)c2C1 | -3.16
38 | CC(C)N1CCC(c2cnc(-c3cncnc3)cn2)CC1 | 21.3
39 | Cc1noc(C)c1CC(=O)N1CC[C@@](C)(O)[C@H](Oc2ccccc2)C1 | -2.99
40 | CC(=O)NCC(=O)N1CCOCC(Cc2ccc3c(ccn3C)c2)C1 (configuration not stated) | -8.14
41 | CNC(=O)C1(Cc2cc(C(C)C)no2)CCN(Cc2ccccn2)C1 (configuration not stated) | -0.0563
42 | COc1cc(CCC(=O)N2CCC(c3cncc(C)n3)CC2)on1 | -3.99
43 | COCC(=O)N1C[C@@H](O)[C@H](N2CCN(c3ccccc3)CC2)C1 | -0.565
44 | c1ccc(N2CCC(c3ccncc3)CC2)cc1 | 5.91
45 | c1cncc(N2CCC(c3ccncc3)CC2)c1 | 3.31
46 | CN(C)C(=O)c1cn[nH]c1C1(C)CCN(c2ncccn2)CC1 | 2.96

Row | Compound | cytotoxicity at 70.5 h [%]
47 | CN1CCC(C(=O)N2CCC(c3ccc4c(N)n[nH]c4n3)CC2)CC1 | -0.601
48 | O=C(Cc1ccccc1)N1CCC(c2nnc(-c3ccccn3)o2)CC1 | 21.6
49 | CC1(C(N)=O)CN(CC2CCOCC2)CCO1 (configuration not stated) | 53.2
50 | Cn1nc(Cl)cc1C(=O)N1CCC(C(=O)c2nc3ccccc3s2)CC1 | 10.5
51 | COc1cccc([C@@]2(O)CC[C@@H]3CN(C(=O)c4cn(C)nc4C)C[C@@H]32)c1 | 1.27
52 | Cc1nc2cc(-c3nccn3C)nn2c(N2CCCC(CO)C2)c1C (configuration not stated) | 2.86
53 | CC(C)N1CCCC1c1csc(N)n1 (configuration not stated) | -1.44
54 | COc1cc(C(=O)NCC2(N(C)C)CCN(C)CC2)c2ccccc2n1 | 0.627
55 | Cc1ccc(OCCN2CCC(c3nc(C)n4c(C)csc34)CC2)cc1 | 3.59
56 | COc1ccc(CN(C)Cc2ccnc(C3CCCO3)n2)cc1 (configuration not stated) | -2.06
57 | CN1CCOC(C)(C(=O)Nc2nccs2)C1 (configuration not stated) | 40.2
58 | O=C1N[C@H]2OCCC[C@H]2[C@H](c2ccccc2C(=O)O)N1 | 13.9
59 | Cn1ccnc1CNC(=O)CCc1cccc(F)c1 | -9.01
60 | CCOc1ccc(CN2CCCC(c3cc4ncccc4[nH]3)C2)cc1 (configuration not stated) | 6.95
61 | Fc1ccc(CN2CCCC(c3cc4ncccc4[nH]3)C2)cc1 (configuration not stated) | 3.04
62 | Cc1c[nH]nc1C1CN(c2cnccn2)CCO1 (configuration not stated) | -4.52
63 | Cc1cn[nH]c1C1CCCCN1C(=O)CCc1c(C)n[nH]c1C (configuration not stated) | -2.55
64 | CCc1noc(C)c1C(=O)N1CCC(c2[nH]ncc2S(C)(=O)=O)C1 (configuration not stated) | -4.87
65 | CN(CCC(=O)N1CCCC(Cc2cccnc2)C1)Cc1cccnc1 (configuration not stated) | -6.27
66 | Cc1nc(-c2ccc(C(=O)O)cc2)cc(C2CCN(C(C)C)CC2)n1 | 12.2
67 | COc1cccc(CN2CC[C@H]3[C@@H](C2)[C@H](c2ccsc2)CN3C(C)=O)c1 | 28.6
68 | Cc1ncc(C(=O)N2CCCC(Cc3nccs3)C2)cn1 (configuration not stated) | -8.16
69 | Cn1cc(C(=O)N2CCCC(Cc3cnccn3)C2)cn1 (configuration not stated) | -15.6

Row | Compound | cytotoxicity at 70.5 h [%]
70 | CCCn1cc(C(=O)N2CCCC(Cc3nccs3)C2)cn1 (configuration not stated) | -4.77
71 | CN(C)C(=O)CN1CCCCC1c1nc(N)ncc1-c1cccc(F)c1 (configuration not stated) | 34.4
72 | CC(=O)N1CCCCC1c1nc(N)ncc1-c1ccccc1 (configuration not stated) | -24.9
73 | O=C(c1ccncc1)N1CCC(c2nc(O)cc(-c3ccncc3)n2)C1 (configuration not stated) | -12.6
74 | CC(=O)N1CCC(c2ccnc(Nc3cncnc3)n2)C1 (configuration not stated) | -32.6
75 | CC(=O)N1CCCC1c1cccc(Cc2ccc(F)cc2)n1 (configuration not stated) | -14.3
76 | CC(=O)N1CCC(C(=O)c2cc(C)cnc2N)CC1 | -15.5
77 | Cc1nc(Nc2ncccn2)cc(C2CCCN2CC(C)C)n1 (configuration not stated) | 43.1
78 | CN(C)C(=O)CN1CCCCC1c1nc(N)ncc1-c1ccccc1 (configuration not stated) | -17.6
79 | CC(C)n1c(C2CCCN(Cc3ccnn3C)C2)nc2ccccc21 (configuration not stated) | -9.99
80 | Cc1n[nH]cc1C(=O)N1CCCC(n2nnc3cc(F)ccc32)C1 (configuration not stated) | -12.2
81 | Cn1cc(CN2CCc3nc(-c4ccccn4)nc(O)c3C2)cn1 | 22.4
82 | CCn1ncc(CN2CCc3c(nc(-c4cccnc4)[nH]c3=O)C2)c1C | -18.3
83 | Cc1nn(C)c(C)c1-c1cncc(C2CCN(S(C)(=O)=O)CC2)n1 | -19.6
84 | CC(=O)N1CCCC(c2cnc(-c3c(C)nn(C)c3C)cn2)C1 (configuration not stated) | -20.6
85 | CC(C)n1cc(C(=O)N2Cc3ccccc3OC3(CCOCC3)C2)cn1 | 23.6
86 | OC1(Cn2ccc3ccncc32)CCN(Cc2ccccn2)CC1 | -2.48
87 | O=C(c1cccnc1)N1CCCC(c2cc(C(F)F)n3ncnc3n2)C1 (configuration not stated) | -13.8
88 | c1cnc(-c2cnc(N3CCSCC3)nc2C2CCCO2)cn1 (configuration not stated) | -16.8
89 | CCCC(=O)N(C)Cc1nc(N2CCCC2)ncc1-c1ccncc1 | -11
90 | Cc1ncc2c(n1)C1(CCN(C(=O)C3CC3)CC1)OCC2 | -9.75
91 | Fc1ccccc1Cn1c(C2CCNCC2)cc2cccnc21 | -4.77
92 | COc1cccc(Cn2c(C3CCNCC3)cc3cccnc32)c1 | -1.55

Row | Compound | cytotoxicity at 70.5 h [%]
93 | COc1ccccc1C1(NCc2c(C)nc3c(C)cccn23)CCCC1 | 24.9
94 | CN(C)c1ccnc(C2CCCN2)n1 (configuration not stated) | -3.83
95 | CC(Cn1cncc1-c1cnn(C2CCCCC2)c1)N1CCCCC1 (configuration not stated) | 25
96 | Fc1cccc(F)c1Cn1c(C2CCNCC2)cc2cccnc21 | 3.7
97 | COc1cccc(Nc2nc(C3CCNCC3)c3ccccn23)c1 | -2.27
98 | COc1cccc(CCC(=O)N2CCC[C@@H](N)[C@@H]2c2ccccc2F)c1 | -1.81
99 | COc1cccc([C@H]2CN(C(C)=O)[C@@H]3CCN(Cc4ccsc4)C[C@H]23)c1 | -4.18
100 | CNCC(=O)N1CC(c2cc(Nc3ncccn3)nc(C)n2)C1 | -20.3
101 | c1cnc2c(c1)cc([C@H]1CCCO1)n2CCN1CCCCC1 | 20.3
102 | OC1(Cn2ccc3ncccc32)CCN(Cc2ccccn2)CC1 | 24.4
103 | COc1ccccc1C(=O)N1Cc2cc(C)ccc2OCC1CN(C)C (configuration not stated) | -8.39
104 | OC1CCN(Cc2c(C3CCCNC3)[nH]c3ncccc23)CC1 (configuration not stated) | -22.4
105 | CC(C)C(=O)N1CCCC(c2cc(C(F)F)n3ncnc3n2)C1 (configuration not stated) | 23.9
106 | c1cnc2c(c1)cc([C@H]1CCCO1)n2CCN1CCOCC1 | -27.8
107 | CCC(CN1CCCCC1)NC(=O)C1(c2cccc(F)c2)CC1 (configuration not stated) | -8.99
108 | Cc1ccccc1-n1nc(C)c(CN(C)C(C)Cc2ccccn2)c1C (configuration not stated) | 0.642
109 | COc1ccc(C2(NCc3c(C)nc4c(C)cccn34)CCCC2)cc1 | -5.54
110 | CCC(CN1CCN(C)CC1)NC(=O)C1(c2cccc(F)c2)CC1 (configuration not stated) | -4.87
111 | COc1ccc(CN(Cc2cncn2C)CC2CCCO2)c(OC)c1 (configuration not stated) | 4.29
112 | Cc1cc(C[C@@H]2CCC[C@H]2NCc2cc(C)c(O)c(C)c2)on1 | 2.36

From ChEMBL document CHEMBL3507680, “University of Dundee, Gates Library screen for HepG2 cell viability”
